Experiments:
[1] = system: patients with non-ST elevation acute coronary syndrome; assay: MERLIN-TIMI 36: arrhythmias on continuous ECG (Holter) recording, first 7 days; type: in vivo, human
Procedure: The safety endpoint data for incidence of clinically significant arrhythmias during 7 day Holter monitoring from MERLIN-TIMI 36 is shown in Table 24 below.
Continuous ECG (Holter) recording was performed for the first 7 days after randomization. Because of the known prolongation of the QT interval with ranolazine, analyses of a prespecified set of arrhythmias were a major objective of the trial. All arrhythmias were evaluated in the TIMI ECG Core Laboratory by cardiologists blinded to treatment and outcomes.
Continuous ECG (cECG or Holter) recording was performed for the first 7 days after randomization. Prespecified arrhythmia analyses were evaluated by a core laboratory blinded to treatment and outcomes.

[2] = system: patients with non-ST elevation acute coronary syndrome; assay: MERLIN-TIMI 36: Seattle Angina Questionnaire scores at 4 months; type: in vivo, human
Description: The MERLIN-TIMI 36 secondary efficacy endpoint (ITT) Seattle Angina Questionnaire scores at 4 months for anginal frequency scale are shown in Table 16 below, and scores for physical limitation scale are shown in Table 17 below.

[3] = system: patients with non-ST elevation ACS; assay: MERLIN-TIMI 36: HbA1c and hyperglycemia; type: in vivo, human
Description: The proportion of patients in the MERLIN-TIMI 36 study with HBA1C ≧7% is shown in Table 28 below (and see FIG. 15).
The proportion of patients with HBA1C ≧7% (with diabetes or no diabetes) at various times during the MERLIN-TIMI 36 study is shown in Table 29 below (and FIG. 16).
HbA1c data are reported as least-square means. Patients categorized as “diabetic” had been diagnosed as diabetic before or at the time of randomization. Patients categorized as “no diabetes” had not been diagnosed as diabetic before or at the time of randomization. Some patients characterized as “no diabetes” may have been diagnosed as “diabetic” during the trial; however, these patients are still listed in the “no diabetes” category in FIG. 4B.

[4] = system: patients with non-ST elevation acute coronary syndrome; assay: MERLIN-TIMI 36: arrhythmias on continuous ECG (Holter) recording, first 7 days; type: in vivo, human; settings: group allocated to ranolazine
women with NSTE ACS = assay: MERLIN-TIMI 36: outcomes in women with NSTE ACS; type: in vivo, human; settings: ranolazine vs placebo
[5] = system: patients with NSTE-ACS who underwent PCI; assay: MERLIN-TIMI 36 post-hoc analysis: VT, CV death and sudden cardiac death after PCI; type: in vivo, human; settings: n = 737
Procedure: The incidence of ventricular tachyarrhythmias after percutaneous coronary intervention (PCI) is low, but has been associated with worse clinical outcomes.
The MERLIN-TIMI 36 trial randomized 6560 pts to RAN or placebo (PLA) stratified according to whether an early invasive or conservative medical strategy was planned. The target RAN dose was 1000 mg bid and could be titrated downward at the investigator's discretion. Continuous Holter monitoring was performed for the first 7 days after randomization. Patients (RAN=737, PLA=754) with at least 2 hrs of evaluable Holter data from start of PCI or patients with at least 1 hour of evaluable Holter data if Holter was restarted within 1 hour from start of PCI were included in this post-hoc analysis. The incidence of non-sustained VT episodes (≧100 bpm lasting at least 8 beats but <30 sec) post PCI was compared using Cochran-Mantel-Haenzel test for general association, stratified by intent for early invasive strategy.

[6] = system: patients with non-ST elevation acute coronary syndrome; assay: MERLIN-TIMI 36: ischemia on Holter / continuous ECG (CECG); type: in vivo, human; settings: >72 hours after randomization, ranolazine vs placebo
Procedure: At randomization, 6355 patients (99%) had 3-lead CECG monitoring initiated (median duration 6.9 days). The primary CECG endpoint was the rate of ST dep>1 mm from baseline lasting >1 minute with heart rate at onset <100 bpm. Exploratory analyses using ST dep>0.5 mm were also performed.

[7] = system: patients with non-ST elevation acute coronary syndrome; assay: MERLIN-TIMI 36: safety endpoints (death from any cause, symptomatic documented arrhythmias, CV hospitalization); type: in vivo
[8] = Baseline (in-hospital visit prior to randomization), all patients dosed n = 3268
[9] = Diabetes at enrollment (n = 1098), Baseline
[10] = Diabetes at enrollment (n = 1098), Final Visit
[11] = Diabetes at enrollment (n = 1098), Month 4
[12] = Diabetes at enrollment (n = 1098), Month 8
[13] = Diabetes at enrollment (n = 1098), Month 16
[14] = Final Visit, all patients dosed n = 3268
[15] = Month 4, all patients dosed n = 3268
[16] = Month 8, all patients dosed n = 3268
[17] = Month 16, all patients dosed n = 3268
[18] = No Diabetes at enrollment (n = 2170), Baseline
[19] = No Diabetes at enrollment (n = 2170), Final Visit
[20] = No Diabetes at enrollment (n = 2170), Month 4
[21] = No Diabetes at enrollment (n = 2170), Month 8
[22] = No Diabetes at enrollment (n = 2170), Month 16
[23] = PCI patients, average follow-up ~1 year
[24] = within 2 hours from start of PCI

COc1ccccc1OCC(O)CN1CCN(CC(=O)Nc2c(C)cccc2C)CC1 (racemic) [Ranolazine, (±)-N-(2,6-dimethylphenyl)-4-[2-hydroxy-3-(2-methoxyphenoxy)-propyl]-1-piperazineacetamide]
Supraventricular tachycardia on cECG, no. of patients ([1]; Example 9, patients with valid cECG recording): 1413
Any clinically significant arrhythmia during 7 day Holter, incidence ([1]; all patients dosed, n = 3268): 71.3%
Any clinically significant arrhythmia during 7 day Holter, no. of pts ([1]; all patients dosed, n = 3268): 2330
Bradycardic episode during 7 day Holter, incidence ([1]; all patients dosed, n = 3268): 38.5%
Bradycardic episode during 7 day Holter, no. of pts ([1]; all patients dosed, n = 3268): 1257
New onset atrial fibrillation during 7 day Holter, incidence ([1]; all patients dosed, n = 3268): 1.7%
New onset atrial fibrillation during 7 day Holter, no. of pts ([1]; all patients dosed, n = 3268): 55
Supraventricular tachycardia (any SVT >=120 bpm) during 7 day Holter, incidence ([1]; all patients dosed, n = 3268): 43.2%
Supraventricular tachycardia (any SVT >=120 bpm) during 7 day Holter, no. of pts ([1]; all patients dosed, n = 3268): 1413
Ventricular tachycardia (any VT >= 100 bpm >=3 beats) during 7 day Holter, incidence ([1]; all patients dosed, n = 3268): 29.0%
Ventricular tachycardia (any VT >= 100 bpm >=3 beats) during 7 day Holter, no. of pts ([1]; all patients dosed, n = 3268): 948
Δ in patients with Sustained VT (>=30 sec) ([1]; placebo vs ranolazine): 0
Δ (%) Polymorphic VT >= 8 beats ([1]; ranolazine vs placebo): −21%
Δ (%) VT ≧ 3 beats (≧100 b/m) ([1]; ranolazine vs placebo): −17%
Δ (%) VT ≧ 4 beats (≧100 b/m) ([1]; ranolazine vs placebo): −30%
Δ (%) VT ≧ 8 beats (<30 sec) ([1]; ranolazine vs placebo): −37%
SAQ Physical Limitation Scale score, 25th percentile-75th percentile ([2]; N 2339): 55.6-94.4
SAQ Physical Limitation Scale score, Min-Max ([2]; N 2339): 0-100
SAQ Anginal Frequency Scale score, 25th percentile-75th percentile ([2]; N 2558): 80-100
SAQ Anginal Frequency Scale score, Median ([2]; N 2558): 100
SAQ Anginal Frequency Scale score, Min-Max ([2]; N 2558): 0-100
Patients with HbA1C ≧7%, no. [3, 8]: 655
Proportion of patients with HbA1C ≧7% [3, 8]: 24%
Patients with HbA1C ≧7%, no. [3, 9]: 542
Proportion of patients with HbA1C ≧7% [3, 9]: 57%
Patients with HbA1C ≧7%, no. [3, 10]: 324
Proportion of patients with HbA1C ≧7% [3, 10]: 42%
Patients with HbA1C ≧7%, no. [3, 11]: 326
Proportion of patients with HbA1C ≧7% [3, 11]: 41%
Patients with HbA1C ≧7%, no. [3, 12]: 263
Proportion of patients with HbA1C ≧7% [3, 12]: 44%
Patients with HbA1C ≧7%, no. [3, 13]: 63
Proportion of patients with HbA1C ≧7% [3, 13]: 48%
Patients with HbA1C ≧7%, no. [3, 14]: 416
Proportion of patients with HbA1C ≧7% [3, 14]: 17%
Patients with HbA1C ≧7%, no. [3, 15]: 404
Proportion of patients with HbA1C ≧7% [3, 15]: 17%
Patients with HbA1C ≧7%, no. [3, 16]: 335
Proportion of patients with HbA1C ≧7% [3, 16]: 18%
Patients with HbA1C ≧7%, no. [3, 17]: 84
Proportion of patients with HbA1C ≧7% [3, 17]: 20%
Patients with HbA1C ≧7%, no. [3, 18]: 113
Proportion of patients with HbA1C ≧7% [3, 18]: 6%
Patients with HbA1C ≧7%, no. [3, 19]: 92
Proportion of patients with HbA1C ≧7% [3, 19]: 6%
Patients with HbA1C ≧7%, no. [3, 20]: 78
Proportion of patients with HbA1C ≧7% [3, 20]: 5%
Patients with HbA1C ≧7%, no. [3, 21]: 72
Proportion of patients with HbA1C ≧7% [3, 21]: 6%
Patients with HbA1C ≧7%, no. [3, 22]: 21
Proportion of patients with HbA1C ≧7% [3, 22]: 7%
Clinically reported sudden cardiac death, no. of patients [4]: 56
HR, worsening angina (women with NSTE ACS): 0.61
CVD (cardiovascular death) - anytime, incidence [5, 23]: 0.9%
CVD (cardiovascular death) - anytime, no. of patients [5, 23]: 7
SCD (sudden cardiac death) - anytime, incidence [5, 23]: 0.1%
SCD (sudden cardiac death) - anytime, no. of patients [5, 23]: 1
CVD (cardiovascular death) - 30 days, incidence ([5]; PCI patients): 0.5%
CVD (cardiovascular death) - 30 days, no. of patients ([5]; PCI patients): 4
SCD (sudden cardiac death) - 30 days, incidence ([5]; PCI patients): 0.1%
SCD (sudden cardiac death) - 30 days, no. of patients ([5]; PCI patients): 1
VT ≧ 8 beats, % of patients with at least 1 episode [5, 24]: 1.1%
VT ≧ 8 beats, no. of patients with at least 1 episode [5, 24]: 8
RR, CECG events [6]: 0.86
Death or CV hospitalization endpoint-defining events: CV hospitalization, % of pts with events ([7]; all patients dosed, n = 3268): 89.3%
Death or CV hospitalization endpoint-defining events: CV hospitalization, no. of pts ([7]; all patients dosed, n = 3268): 926
Death or CV hospitalization endpoint-defining events: Death, % of pts with events ([7]; all patients dosed, n = 3268): 10.7%
Death or CV hospitalization endpoint-defining events: Death, no. of pts ([7]; all patients dosed, n = 3268): 111
Cardiac arrest NOS, incidence ([7]; human, in vivo): 0.3%
Cardiac arrest NOS, no. of pts ([7]; human, in vivo): 10
Symptomatic documented arrhythmias - overall, incidence ([7]; human, in vivo): 3.0%
Symptomatic documented arrhythmias - overall, no. of pts ([7]; human, in vivo): 99
Symptomatic documented bradyarrhythmias, incidence ([7]; human, in vivo): 1.0%
Symptomatic documented bradyarrhythmias, no. of pts ([7]; human, in vivo): 34
Symptomatic documented supraventricular arrhythmias, incidence ([7]; human, in vivo): 1.2%
Symptomatic documented supraventricular arrhythmias, no. of pts ([7]; human, in vivo): 38
Symptomatic documented ventricular arrhythmias, incidence ([7]; human, in vivo): 0.7%
Symptomatic documented ventricular arrhythmias, no. of pts ([7]; human, in vivo): 22
HR, total mortality ([7]; ranolazine vs placebo): 0.99
